From US20240270741A1 (Cogent Biosciences, Inc., priority 2023, published 2024)

The compounds below were run against FGFR2 (Homo sapiens, UniProt P21802) (assay: FGFR wild type enzyme assay (HTRF KinEASE-TK), FGFR2). Settings: Enz FGFR2 (nM), FGFR2 wild type enzyme assay.
Chain of FGFR2 (P21802 399-821 limits assumed): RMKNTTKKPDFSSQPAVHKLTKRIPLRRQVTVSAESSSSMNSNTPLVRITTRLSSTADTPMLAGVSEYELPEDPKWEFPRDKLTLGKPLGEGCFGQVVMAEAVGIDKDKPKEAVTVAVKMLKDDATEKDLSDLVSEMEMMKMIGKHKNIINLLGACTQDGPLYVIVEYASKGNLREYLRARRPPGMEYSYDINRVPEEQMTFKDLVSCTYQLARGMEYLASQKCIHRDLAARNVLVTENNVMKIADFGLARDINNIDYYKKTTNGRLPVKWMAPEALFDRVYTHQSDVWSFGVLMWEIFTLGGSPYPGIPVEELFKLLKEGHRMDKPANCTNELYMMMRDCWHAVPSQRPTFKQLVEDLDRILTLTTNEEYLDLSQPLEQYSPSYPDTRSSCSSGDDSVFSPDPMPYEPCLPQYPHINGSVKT

Row | Structure (SMILES) | IC50
1 | Cc1c(-c2cc(Sc3ccc(F)cc3C#N)c3c(C#N)cnn3c2)cnn1[C@H]1CCC[C@H](O)C1 [Example 496, 4-((2-cyano-4-fluorophenyl)thio)-6-(1-((1S,3S)-3-hydroxycyclohexyl)-5-methyl-1H-pyrazol-4-yl)pyrazolo[1,5-a]pyridine-3-carbonitrile] | 3 nM
2 | Cc1c(-c2cc(Sc3ccc(F)cc3C#N)c3c(C#N)cnn3c2)cnn1[C@H]1CCC[C@@H](O)C1 [Example 498, 4-((2-cyano-4-fluorophenyl)thio)-6-(1-((1S,3R)-3-hydroxycyclohexyl)-5-methyl-1H-pyrazol-4-yl)pyrazolo[1,5-a]pyridine-3-carbonitrile] | 2 nM
3 | CN1CC(n2cc(-c3cc(Sc4ncccc4F)c4c(C#N)cnn4c3)cn2)CCC1=O (stereo not shown) [Example 505, 4-((3-fluoropyridin-2-yl)thio)-6-(1-(1-methyl-6-oxopiperidin-3-yl)-1H-pyrazol-4-yl)pyrazolo[1,5-a]pyridine-3-carbonitrile] | 3 nM
4 | N#Cc1nn([C@H]2CCCNC2)cc1-c1cc(Sc2ncccc2F)c2c(C#N)cnn2c1 [Example 507, (S)-6-(3-cyano-1-(piperidin-3-yl)-1H-pyrazol-4-yl)-4-((3-fluoropyridin-2-y)thio)pyrazolo[1,5-a]pyridine-3-carbonitrile] | 30 nM
5 | CNC(=O)c1nn([C@H]2CCCNC2)cc1-c1cc(Sc2ncccc2F)c2c(C#N)cnn2c1 [Example 508, (S)-4-(3-cyano-4-((3-fluoropyridin-2-yl)thio)pyrazolo[1,5-a]pyridin-6-yl)-N-methyl-1-(piperidin-3-yl)-1H-pyrazole-3-carboxamide] | 48 nM
6 | N#Cc1cnn2cc(-c3cn([C@H]4CCCNC4)c4nccnc34)cc(Sc3ncccc3F)c12 [Example 509, (S)-4-((3-fluoropyridin-2-yl)thio)-6-(5-(piperidin-3-yl)-5H-pyrrolo[2,3-b]pyrazin-7-yl)pyrazolo[1,5-a]pyridine-3-carbonitrile] | 22 nM
7 | CC(C)(CO)N1CC[C@H](n2cc(-c3cc(Sc4ncccc4F)c4c(C#N)cnn4c3)cn2)C1 [Example 510, (S)-4-((3-fluoropyridin-2-yl)thio)-6-(1-(1-(1-hydroxy-2-methylpropan-2-yl)pyrrolidin-3-yl)-1H-pyrazol-4-yl)pyrazolo[1,5-a]pyridine-3-carbonitrile] | 1 nM
8 | Cc1c(-c2cc(Sc3ccc(F)cc3C#N)c3c(C#N)cnn3c2)cnn1CCO [Example 511, 4-((2-cyano-4-fluorophenyl)thio)-6-(1-(2-hydroxyethyl)-5-methyl-1H-pyrazol-4-yl)pyrazolo[1,5-a]pyridine-3-carbonitrile] | 8 nM
9 | Cc1c(-c2cc(Sc3ccc(F)cc3C#N)c3c(C#N)cnn3c2)cnn1[C@H]1CCCN(C(=O)[C@@H](C)O)C1 [Example 512, 4-((2-cyano-4-fluorophenyl)thio)-6-(1-((S)-1-((R)-2-hydroxypropanoyl)piperidin-3-yl)-5-methyl-1H-pyrazol-4-yl)pyrazolo[1,5-a]pyridine-3-carbonitrile] | 1 nM
10 | CS(=O)(=O)N1CCC(n2cc(-c3cc(Sc4ccccc4C#N)c4c(C#N)cnn4c3)cn2)CC1 [Example 513, 4-((2-cyanophenyl)thio)-6-(1-(1-(methylsulfonyl)piperidin-4-yl)-1H-pyrazol-4-yl)pyrazolo[1,5-a]pyridine-3-carbonitrile] | 1 nM
11 | CS(=O)(=O)N1CCC[C@H](n2cc(-c3cc(Sc4ccccc4C#N)c4c(C#N)cnn4c3)cn2)C1 [Example 514, (S)-4-((2-cyanophenyl)thio)-6-(1-(1-(methylsulfonyl)piperidin-3-yl)-1H-pyrazol-4-yl)pyrazolo[1,5-a]pyridine-3-carbonitrile] | 1 nM

Continued by falling IC50, values first:

Row | IC50 | Structure (SMILES)
12 | 1 nM | CC(C)(C)n1cc(-c2cc(Sc3ccccc3C#N)c3c(C#N)cnn3c2)cn1 [Example 493, 6-(1-(tert-butyl)-1H-pyrazol-4-yl)-4-((2-cyanophenyl)thio)pyrazolo [1,5-a]pyridine-3-carbonitrile]
13 | 1 nM | CC(C)(O)Cn1cc(-c2cc(Sc3ccccc3C#N)c3c(C#N)cnn3c2)cn1 [Example 494, 4-((2-cyanophenyl)thio)-6-(1-(2-hydroxy-2-methylpropyl)-1H-pyrazol-4-yl)pyrazolo[1,5-a]pyridine-3-carbonitrile]
14 | 1 nM | N#Cc1ccccc1Sc1cc(-c2ccc(N3CCOCC3)nc2)cn2ncc(C#N)c12 [Example 495, 4-((2-cyanophenyl)thio)-6-(6-morpholinopyridin-3-yl)pyrazolo[1,5-a]pyridine-3-carbonitrile]
15 | 1 nM | Cc1c(-c2cc(Sc3ccc(F)cc3C#N)c3c(C#N)cnn3c2)cnn1[C@@H]1CCC[C@@H](O)C1 [Example 497, 4-((2-cyano-4-fluorophenyl)thio)-6-(1-((1R,3R)-3-hydroxycyclohexyl)-5-methyl-1H-pyrazol-4-y)pyrazolo[1,5-a]pyridine-3-carbonitrile]
16 | 1 nM | Cc1c(-c2cc(Sc3ccc(F)cc3C#N)c3c(C#N)cnn3c2)cnn1[C@@H]1CCC[C@H](O)C1 [Example 499, 4-((2-cyano-4-fluorophenyl)thio)-6-(1-((1R,3S)-3-hydroxycyclohexyl)-5-methyl-1H-pyrazol-4-yl)pyrazolo[1,5-a]pyridine-3-carbonitrile]
17 | 1 nM | C[C@]1(O)CC[C@@H](n2cc(-c3cc(Sc4ccc(F)cc4C#N)c4c(C#N)cnn4c3)cn2)CC1 [Example 500, 4-((2-cyano-4-fluorophenyl)thio)-6-(1-((1s,4s)-4-hydroxy-4-methylcyclohexyl)-1H-pyrazol-4-yl)pyrazolo[1,5-a]pyridine-3-carbonitrile]
18 | 1 nM | C[C@]1(O)CC[C@H](n2cc(-c3cc(Sc4ccc(F)cc4C#N)c4c(C#N)cnn4c3)cn2)CC1 [Example 501, 4-((2-cyano-4-fluorophenyl)thio)-6-(1-((1r,4r)-4-hydroxy-4-methylcyclohexyl)-1H-pyrazol-4-yl)pyrazolo[1,5-a]pyridine-3-carbonitrile]
19 | 1 nM | C[C@@H](O)C(=O)N1CCC(n2cc(-c3cc(Sc4ccc(F)cc4C#N)c4c(C#N)cnn4c3)cn2)CC1 [Example 502, (R)-4-((2-cyano-4-fluorophenyl)thio)-6-(1-(1-(2-hydroxypropanoyl)piperidin-4-yl)-1H-pyrazol-4-yl)pyrazolo[1,5-a]pyridine-3-carbonitrile]
20 | 1 nM | CN1CCC(n2cc(-c3cc(Sc4ncccc4F)c4c(C#N)cnn4c3)cn2)CC1=O (stereo not shown) [Example 506, 4-((3-fluoropyridin-2-yl)thio)-6-(1-(1-methyl-2-oxopiperidin-4-yl)-1H-pyrazol-4-yl)pyrazolo[1,5-a]pyridine-3-carbonitrile]
21 | 0.5 nM | C[C@]1(O)CC[C@@H](n2cc(-c3cc(Sc4ccccc4C#N)c4c(C#N)cnn4c3)cn2)CC1 [Example 503, 4-((2-cyanophenyl)thio)-6-(1-((1s,4s)-4-hydroxy-4-methylcyclohexyl)-1H-pyrazol-4-yl)pyrazolo[1,5-a]pyridine-3-carbonitrile]
22 | 0.4 nM | C[C@]1(O)CC[C@H](n2cc(-c3cc(Sc4ccccc4C#N)c4c(C#N)cnn4c3)cn2)CC1 [Example 504, 4-((2-cyanophenyl)thio)-6-(1-((1r,4r)-4-hydroxy-4-methylcyclohexyl)-1H-pyrazol-4-yl)pyrazolo[1,5-a]pyridine-3-carbonitrile]
